From article PMC12040169 (PLOS Biology, 2025) come the findings set out here.

Usually viability stands for a read-out of living cells in per cent, often relative to untreated cells.

This data set is described as follows: in vitro. The note with it: human, hela cells, % viability.

As to `N#C/C(=C/c1ccc(-c2ccc(S(N)(=O)=O)cc2)o1)S(=O)(=O)c1ccc(Cl)cc1` [CBK266383], the viability at 28.5 h, 10 µM worked out at 110%. Under `Cc1cc(C)c2[nH]c(CC(=O)N(C)CCN(C)C)nc2c1` [CBK282727] stands 74.3%; under `O=C(Nc1ccc(-n2cc(Cl)cn2)cc1)c1ccncc1` [CBK270249], 88.2%; under `COc1ccc(CCNC(=S)N2CCN(c3ccccn3)CC2)cc1OC` [CBK266897], 94.5%. Regarding `O=C(Cn1c(-c2ccc(F)cc2)cc2cccnc21)N1CCCC1` [CBK285384], the viability at 28.5 h, 10 µM was 102%. To `CC(C)c1cc(C(=O)N2CCN(C)C(=O)C2Cc2ccccc2-c2ccc(F)cc2)[nH]n1` (stereo not shown) [CBK285833] belongs 92.1%; to `COCCN1C(=O)C2(CC(=O)N(CCCCC(C)C)C2=O)c2cc(OC)ccc21` (stereo not shown) [CBK075145], 109%. Under `c1ccc(SCc2nc(-c3cccnc3)no2)cc1` [CBK266078] stands 101%; under `O=C1C[C@H]2[C@H](CC3(SCCS3)[C@@H]2CO)O1` [CBK006615], 90.2%. Under `NCCSC1CC(=O)N(Cc2cccs2)C1=O` (stereo not shown) [CBK269047C] stands 92.3%. Take `CCN(CC)CCn1c2ccccc2c2nc(C)sc21` [CBK266628C]: the viability at 28.5 h, 10 µM was determined as 100%.

Regarding `O=C(Nc1ccncc1)c1snnc1-c1ccccc1` [CBK287982], the viability at 28.5 h, 10 µM was found to be 81.4%. With `COc1ccc(C(NC(=O)C2CCN(C(=O)OC(C)C)CC2)c2ccccc2C)cn1` (stereo not shown) [CBK059704], the viability at 28.5 h, 10 µM is 101%. Consider `CCOc1ccccc1NC(=O)CC1Sc2ccc(C(F)(F)F)cc2NC1=O` (stereo not shown) [CBK263659], for which the viability at 28.5 h, 10 µM was found to be 95.6%. Under `O=C(Nc1ccc2[nH]ccc2c1)N1CCCC(CO)C1` (stereo not shown) [CBK156044] stands 86.8%; under `CSCCc1[nH]c(SCC(=O)Nc2cccc3ccccc23)nc1C` [CBK266097], 91.3%. As for `Cc1cccnc1C(NC(=O)C1CCN(C(=O)N2CCCC2)CC1)c1cccs1` (stereo not shown) [CBK060124], the viability at 28.5 h, 10 µM turned out to be 106%. Under `COc1ccc(C(=O)N2CCC3(CCCN(C(=O)c4ccc5occc5c4)C3)C2)cc1OC` (stereo not shown) [CBK131665] stands 97.6%; under `CCOC(=O)c1sc(NC(=O)Nc2cccc(Cl)c2)c(C(N)=O)c1C` [CBK262658], 107%.

With `Cc1oc2c(c1C(=O)NCC(=O)NCC(=O)O)CCCC2` [CBK264015], the viability at 28.5 h, 10 µM stood at 97.6%. Under `CC(=O)Nc1ccc(-c2cncc(N(C)CCN(C)C)n2)cc1` [CBK065694] stands 97.8%; under `CN1CCCC(NC(=O)c2cc(-c3cccs3)no2)C1` (stereo not shown) [CBK282564], 87.2%; under `c1coc(-c2ccc3c(c2)COC2(CCN(CCc4ccc5c(c4)OCO5)CC2)O3)c1` [CBK061057], 90.4%. On to `Cc1sc(-c2ccc(C(F)(F)F)cc2)nc1COc1cncc(N2CCNCC2)n1` [CBK172383G], for which the viability at 28.5 h, 10 µM turned out to be 85.6%. For `Cc1noc(C)c1S(N)(=O)=O` [CBK022939], the viability at 28.5 h, 10 µM was found to be 84.6%.

For the compound `CN(CCN1CCCCC1)C(=O)C1(c2ccc(F)cc2)CC1` [CBK282178], the viability at 28.5 h, 10 µM stood at 95.4%. For the compound `Cc1ncccc1-c1csc(C2CCCO2)n1` (stereo not shown) [CBK304121], the viability at 28.5 h, 10 µM stood at 117%. Under `CCn1nccc1N1CCCC(NC(=O)CCc2ccccc2Cl)C1=O` (stereo not shown) [CBK305455] stands 113%. For the compound `CC[C@H](Cn1c(=O)oc2ccccc21)NC(=O)C1CCCC1` [CBK284542], the viability at 28.5 h, 10 µM turned out to be 97.2%. Under `O=C(O)[C@H]1CCCN1Cc1cc(Cl)ccc1OCCCn1ccnc1` [CBK307436] stands 109%; under `CCOC(=O)c1cnn(C2CCCN(c3cccc(C#N)n3)C2)c1` (stereo not shown) [CBK306430], 81.5%; under `COC(=O)C1CCN(Cc2ccc(-c3nnn(CC(=O)NCc4ccc(C)cc4)n3)cc2)C1` (stereo not shown) [CBK155406T], 105%. To `CCN(CC)C(=O)C1CN2CCc3cc(OC)c(OC)cc3C2CC1OC(C)=O` (stereo not shown) [CBK022778] belongs 110%. Regarding `Cc1cc(Cl)ccc1NC(=O)CCC(=O)N/N=C/c1ccc(O)cc1` [CBK261974], the viability at 28.5 h, 10 µM stood at 89.6%. Under `c1cc(-c2nccnc2OC2CCCCC2)ccn1` [CBK106727] stands 87.8%; under `O=C(NC(c1ccc(Cl)cc1)c1cnccn1)C1CCN(Cc2ccc(Oc3ccccc3)cc2)CC1` (stereo not shown) [CBK148023], 108%. Under `CCN(CC)C(=O)c1cccc(NC(=O)Cc2cn3ccsc3n2)c1` [CBK305353] stands 85.6%.

As to `Oc1ccc(-c2cncc(Nc3cccc(Br)c3)n2)cc1` [CBK107803], the viability at 28.5 h, 10 µM worked out at 84.8%. Under `CCCCOc1ccc(-c2nnn(C(C)C(=O)O)n2)cc1` (stereo not shown) [CBK070540] stands 103%. Under `O=C(O)C(Cc1ccccc1)N1C(=O)/C(=C/C=C/c2ccccc2)SC1=S` (stereo not shown) [CBK263496] stands 99.6%; under `COc1ccnc(N2CCN(C(=O)c3cc(C)nn3C)CC2)n1` [CBK305967], 83.7%; under `O=C1c2ccc(Oc3ccc4c(c3)C(=O)N(c3ccncc3)C4=O)cc2C(=O)N1c1ccncc1` [CBK261399], 96.5%. For the compound `Cc1ccc(S(=O)(=O)N2C[C@H](O)C[C@H]2C(=O)O)cc1` [CBK289276], the viability at 28.5 h, 10 µM came out at 103%. Under `Cc1cc(=O)[nH]c(C)c1C(=O)N1CCC(N2CCCC(CO)C2)CC1` (stereo not shown) [CBK307158] stands 103%.

For `COc1ccc(CCc2nc(C)cc(CN(C)C)c2O)cc1OC` [CBK278320C], the viability at 28.5 h, 10 µM turned out to be 89%. To `c1ccc(COc2ccccc2-c2cc(NCCc3ccccn3)ncn2)cc1` [CBK037826] belongs 102%. Under `CCN(CC)C(=O)Cn1nc(C)n2c(cc3ccsc32)c1=O` [CBK284104] stands 97.3%; under `N[C@@H]1CCCN(C(=O)c2ccccc2)[C@H]1c1ccccc1F` [CBK281405], 106%; under `Cn1c(CN2CCOCC2)nnc1SCC(=O)Nc1cccc(F)c1` [CBK269629], 80.2%. As to `O=C(CC1CCN(Cc2ccccn2)CC1)NCC1(c2ccccc2)CCCC1` [CBK285959], the viability at 28.5 h, 10 µM worked out at 87.4%. To `COc1ccccc1CC(=O)NCCC(=O)N1CCN(c2ccc(F)cc2)CC1` [CBK298318] belongs 87.6%; to `O=c1ccc2ccc(-c3ccc(OC(F)(F)F)cc3)nc2[nH]1` [CBK073720], 98.8%; to `COc1cc(C#N)ccc1Oc1ccc([N+](=O)[O-])cc1C(F)(F)F` [CBK002544], 104%. For `CC(NC(=O)N1CCCC(CO)C1)c1ccccc1` (stereo not shown) [CBK156066], the viability at 28.5 h, 10 µM is 87.1%.

On to `Cc1cccc(C2NS(=O)(=O)NC2=N)c1` (stereo not shown) [CBK263868], for which the viability at 28.5 h, 10 µM was 98.3%. To `O=C(O)c1ccc(-c2ccc(N3CCN(C(=O)c4ccco4)CC3)nc2)cc1` [CBK037700] belongs 97.9%; to `CCN(Cc1cn2ccc(C)cc2n1)CC1CCOCC1` [CBK306680], 89.7%.

Turning to `CN1CCN(c2ccc(-c3cncc(N4CCN(c5ccncc5)CC4)n3)cn2)CC1` [CBK065144], the viability at 28.5 h, 10 µM amounted to 92.9%.
